Patent US8119645B2, “Fungicide hydroximoyl-tetrazole derivatives” (Bayer Cropscience AG, priority 2006, dated 2012)

test: logP by reversed-phase HPLC (EEC Directive 79/831 Annex V.A8); type: physicochemical; conditions: not given

SMILES | chromatographic logP
Cc1nnnn1/C(=N/OCc1csc(NC(=O)C(C)(C)C)n1)c1ccsc1 [Compound 18, O-(2-tert-Butylcarbonylamino-1,3-thiazol-4-yl)methyl-(thien-3-yl)-(5-methyltetrazol-1-yl)methanone oxime] | 2.94
Cc1nnnn1/C(=N/OCc1csc(N)n1)c1ccsc1 [Compound 20, O-(2-Amino-1,3-thiazol-4-yl)methyl-(thien-3-yl)-(5-methyltetrazol-1-yl)methanone oxime] | 1.32

same assay, conditions: HPLC C18, 40° C., 0.1% aqueous formic acid / acetonitrile gradient

SMILES | LogP
Cc1nnnn1C(=NOCc1cccc(NC(=O)c2ccccc2)n1)c1ccsc1Cl [Compound 1] | 3.26
Cc1nnnn1C(=NOCc1cccc(NC(=O)C(C)(C)C)n1)c1ccsc1Cl [Compound 2] | 3.27
CCCCCC(=O)Nc1cccc(CON=C(c2ccsc2Cl)n2nnnc2C)n1 [Compound 3] | 3.65
Cc1nnnn1C(=NOCc1csc(NC(=O)c2ccccc2)n1)c1ccsc1Cl [Compound 4] | 3.26
Cc1nnnn1C(=NOCc1csc(NC(=O)CCCCl)n1)c1ccsc1Cl [Compound 5] | 3
C=CCC(=O)Nc1nc(CON=C(c2ccsc2Cl)n2nnnc2C)cs1 [Compound 6] | 2.73
Cc1nnnn1C(=NOCc1csc(NC(=O)C2CCCC2)n1)c1ccsc1Cl [Compound 7] | 3.3
Cc1nnnn1C(=NOCc1csc(NC(=O)C2CCCCC2)n1)c1ccsc1Cl [Compound 8] | 4.48
Cc1nnnn1C(=NOCc1csc(NC(=O)CCc2ccccc2)n1)c1ccsc1Cl [Compound 9] | 3.45
Cc1nnnn1C(=NOCc1csc(NC(=O)Cc2ccccc2)n1)c1ccsc1Cl [Compound 10] | 3.21
CCCCCCCCC(=O)Nc1nc(CON=C(c2ccsc2Cl)n2nnnc2C)cs1 [Compound 11] | 4.77
Cc1nnnn1C(=NOCc1csc(NC(=O)C(C)C)n1)c1ccsc1Cl [Compound 12] | 2.86
CCCCCC(=O)Nc1nc(CON=C(c2ccsc2Cl)n2nnnc2C)cs1 [Compound 13] | 3.59
Cc1nnnn1C(=NOCc1cccc(N)n1)c1ccsc1Cl [Compound 14] | 1.39
COCCOCC(=O)Nc1cccc(CON=C(c2ccsc2Cl)n2nnnc2C)n1 [Compound 15] | 2.61
CCCCCOC(=O)Nc1cccc(CON=C(c2ccsc2Cl)n2nnnc2C)n1 [Compound 16] | 4.19
COCCOC(=O)Nc1cccc(CON=C(c2ccsc2Cl)n2nnnc2C)n1 [Compound 17] | 2.66
Cc1nnnn1C(=NOCc1cccc(N)n1)c1ccsc1 [Compound 19] | 1.28
Cc1nnnn1C(=NOCc1csc(NC(=O)Nc2ccccc2)n1)c1ccsc1 [Compound 21] | 2.88
CCCCCNC(=O)Nc1nc(CON=C(c2ccsc2)n2nnnc2C)cs1 [Compound 22] | 2.99
CCCCCCCCNC(=O)Nc1nc(CON=C(c2ccsc2)n2nnnc2C)cs1 [Compound 23] | 3.26

SMILES | LogP
Cc1nnnn1C(=NOCc1csc(NC(=O)NCCc2ccccc2)n1)c1ccsc1 [Compound 24] | 2.86
Cc1nnnn1C(=NOCc1csc(NC(=O)NC2CCCCC2)n1)c1ccsc1 [Compound 25] | 2.92
Cc1nnnn1C(=NOCc1csc(NC(=O)NC(C)C)n1)c1ccsc1 [Compound 26] | 2.32
C=CCNC(=O)Nc1nc(CON=C(c2ccsc2)n2nnnc2C)cs1 [Compound 27] | 2.22
Cc1nnnn1C(=NOCc1csc(NC(=O)NC2CCCC2)n1)c1ccsc1 [Compound 28] | 2.65
Cc1nnnn1C(=NOCc1csc(NC(=O)C2CCCCC2)n1)c1ccsc1 [Compound 29] | 3.32
CCCCCC(=O)Nc1nc(CON=C(c2ccsc2)n2nnnc2C)cs1 [Compound 30] | 3.25
Cc1nnnn1C(=NOCc1csc(NC(=O)C(C)C)n1)c1ccsc1 [Compound 31] | 2.55
Cc1nnnn1C(=NOCc1csc(NC(=O)Cc2ccccc2)n1)c1ccsc1 [Compound 32] | 2.9
Cc1nnnn1C(=NOCc1csc(NC(=O)CCc2ccccc2)n1)c1ccsc1 [Compound 33] | 3.14
Cc1nnnn1C(=NOCc1csc(NC(=O)CCCCl)n1)c1ccsc1 [Compound 34] | 2.67
Cc1nnnn1C(=NOCc1csc(NC(=O)c2ccccc2)n1)c1ccsc1 [Compound 35] | 2.93
CCCCCC(=O)Nc1cccc(CON=C(c2ccsc2)n2nnnc2C)n1 [Compound 36] | 3.39
Cc1nnnn1C(=NOCc1cccc(NC(=O)C(C)(C)C)n1)c1ccsc1 [Compound 37] | 3
Cc1nnnn1C(=NOCc1cccc(NC(=O)c2ccccc2)n1)c1ccsc1 [Compound 38] | 3.01
Cc1nnnn1C(=NOCc1csc(NC(=O)C2CCCC2)n1)c1ccsc1 [Compound 39] | 3.05
C=CCC(=O)Nc1nc(CON=C(c2ccsc2)n2nnnc2C)cs1 [Compound 40] | 2.51
CCCCCCCCC(=O)Nc1nc(CON=C(c2ccsc2)n2nnnc2C)cs1 [Compound 41] | 4.51
CCc1nnnn1C(=NOCc1csc(NC(=O)C(C)(C)C)n1)c1ccsc1 [Compound 42] | 3.35
CCc1nnnn1C(=NOCc1csc(NC(=O)C(C)C)n1)c1ccsc1 [Compound 43] | 3.04
Cc1nnnn1C(=NOCc1csc(NC(=O)OCCc2ccccc2)n1)c1ccsc1 [Compound 44] | 3.46

SMILES | LogP
Cc1nnnn1C(=NOCc1csc(NC(=O)CCCc2ccccc2)n1)c1ccsc1 [Compound 45] | 3.49
Cc1nnnn1C(=NOCc1csc(NC(=O)OCc2ccccc2)n1)c1ccsc1 [Compound 46] | 3.24
Cc1nnnn1C(=NOCc1csc(NC(=S)NCCc2ccccc2)n1)c1ccsc1 [Compound 47] | 3.65
COCCOCC(=O)Nc1nc(CON=C(c2ccsc2)n2nnnc2C)cs1 [Compound 48] | 2.28
COCCOC(=O)Nc1nc(CON=C(c2ccsc2)n2nnnc2C)cs1 [Compound 49] | 2.3
Cc1nnnn1C(=NOCCc1csc(N)n1)c1ccsc1 [Compound 50] | 1.16
Cc1nnnn1C(=NOCCc1csc(NC(=O)C(C)(C)C)n1)c1ccsc1 [Compound 51] | 3.19
Cc1nnnn1C(=NOCc1csc(NC(=O)C(C)(C)C)n1)c1ccc(-c2ccccc2)s1 [Compound 53] | 4.24
Cc1nnnn1C(=NOCc1csc(NC(=O)Cc2ccccc2)n1)c1ccc(-c2ccccc2)s1 [Compound 54] | 4.08
Cc1nnnn1C(=NOCc1csc(NC(=O)C2CC2)n1)c1ccc(-c2ccccc2)s1 [Compound 55] | 3.7
CCCC(=O)Nc1nc(CON=C(c2ccc(-c3ccccc3)s2)n2nnnc2C)cs1 [Compound 56] | 3.87
CCCCCC(=O)Nc1nc(CON=C(c2ccc(-c3ccccc3)s2)n2nnnc2C)cs1 [Compound 57] | 4.58
Cc1ccc(C(=NOCc2csc(N)n2)n2nnnc2C)o1 [Compound 58] | 1.47
Cc1ccc(C(=NOCc2csc(NC(=O)C(C)(C)C)n2)n2nnnc2C)o1 [Compound 59] | 2.95
Cc1ccc(C(=NOCc2csc(NC(=O)CCCc3ccccc3)n2)n2nnnc2C)o1 [Compound 60] | 3.4
Cc1ccc(C(=NOCc2csc(NC(=O)CCc3ccccc3)n2)n2nnnc2C)o1 [Compound 61] | 3.15
Cc1ccc(C(=NOCc2csc(NC(=O)C3CCCC3)n2)n2nnnc2C)o1 [Compound 62] | 2.98
Cc1ccc(C(=NOCc2csc(NC(=O)c3ccccc3)n2)n2nnnc2C)o1 [Compound 63] | 2.96
CCCCCC(=O)Nc1nc(CON=C(c2ccc(C)o2)n2nnnc2C)cs1 [Compound 64] | 3.26
Cc1ccc(C(=NOCc2csc(NC(=O)Cc3ccccc3)n2)n2nnnc2C)o1 [Compound 65] | 2.92
Cc1ccc(C(=NOCc2csc(NC(=O)C(C)C)n2)n2nnnc2C)o1 [Compound 66] | 2.57

SMILES | LogP
Cc1ccc(C(=NOCc2csc(NC(=O)COCc3ccccc3)n2)n2nnnc2C)o1 [Compound 67] | 3.12
Cc1ccc(C(=NOCc2csc(NC(=O)C3CC3)n2)n2nnnc2C)o1 [Compound 68] | 2.41
C=CCC(=O)Nc1nc(CON=C(c2ccc(C)o2)n2nnnc2C)cs1 [Compound 69] | 2.42
COCCOCC(=O)Nc1nc(CON=C(c2ccc(C)o2)n2nnnc2C)cs1 [Compound 70] | 2.23
COCCOC(=O)Nc1nc(CON=C(c2ccc(C)o2)n2nnnc2C)cs1 [Compound 71] | 2.37
Cc1ccc(C(=NOCc2cccc(N)n2)n2nnnc2C)o1 [Compound 72] | 1
COCCOC(=O)Nc1cccc(CON=C(c2ccc(C)o2)n2nnnc2C)n1 [Compound 73] | 2.53
CCCCCOC(=O)Nc1cccc(CON=C(c2ccc(C)o2)n2nnnc2C)n1 [Compound 74] | 4.04
Cc1ccc(C(=NOCc2cccc(NC(=O)OCCc3ccccc3)n2)n2nnnc2C)o1 [Compound 75] | 3.78
Cc1nnnn1C(=NOCc1csc(N)n1)c1cc(-c2ccccc2)c(Cl)s1 [Compound 76] | 2.86
Cc1nnnn1C(=NOCc1csc(NC(=O)C2CC2)n1)c1cc(-c2ccccc2)c(Cl)s1 [Compound 77] | 4.03
CCCCCCCCC(=O)Nc1nc(CON=C(c2cc(-c3ccccc3)c(Cl)s2)n2nnnc2C)cs1 [Compound 78] | 5.94
CCCC(=O)Nc1nc(CON=C(c2cc(-c3ccccc3)c(Cl)s2)n2nnnc2C)cs1 [Compound 79] | 4.18
CCCCCC(=O)Nc1nc(CON=C(c2cc(-c3ccccc3)c(Cl)s2)n2nnnc2C)cs1 [Compound 80] | 4.88
Cc1nnnn1C(=NOCc1csc(N)n1)c1ccc(-c2ccc(Cl)c(Cl)c2)o1 [Compound 81] | 2.83
CCCC(=O)Nc1nc(CON=C(c2ccc(-c3ccc(Cl)c(Cl)c3)o2)n2nnnc2C)cs1 [Compound 82] | 4.11
CCCCCCCCC(=O)Nc1nc(CON=C(c2ccc(-c3ccc(Cl)c(Cl)c3)o2)n2nnnc2C)cs1 [Compound 83] | 5.85
Cc1nnnn1C(=NOCc1csc(NC(=O)C2CC2)n1)c1ccc(-c2ccc(Cl)c(Cl)c2)o1 [Compound 84] | 3.83
